Test results: PMC11286291, “A Light-Driven In Vitro Enzymatic Biosystem for the Synthesis of α-Farnesene from Methanol” (Biodesign Research, 2024)

Biological target: T1, AFS (Malus domestica, UniProt Q84LB2)
T1 construct: gene AFS1; N-terminal SUMO fusion, pET28a, E. coli BL21(DE3), Ni-NTA purified
T1 sequence (Q84LB2 1-576): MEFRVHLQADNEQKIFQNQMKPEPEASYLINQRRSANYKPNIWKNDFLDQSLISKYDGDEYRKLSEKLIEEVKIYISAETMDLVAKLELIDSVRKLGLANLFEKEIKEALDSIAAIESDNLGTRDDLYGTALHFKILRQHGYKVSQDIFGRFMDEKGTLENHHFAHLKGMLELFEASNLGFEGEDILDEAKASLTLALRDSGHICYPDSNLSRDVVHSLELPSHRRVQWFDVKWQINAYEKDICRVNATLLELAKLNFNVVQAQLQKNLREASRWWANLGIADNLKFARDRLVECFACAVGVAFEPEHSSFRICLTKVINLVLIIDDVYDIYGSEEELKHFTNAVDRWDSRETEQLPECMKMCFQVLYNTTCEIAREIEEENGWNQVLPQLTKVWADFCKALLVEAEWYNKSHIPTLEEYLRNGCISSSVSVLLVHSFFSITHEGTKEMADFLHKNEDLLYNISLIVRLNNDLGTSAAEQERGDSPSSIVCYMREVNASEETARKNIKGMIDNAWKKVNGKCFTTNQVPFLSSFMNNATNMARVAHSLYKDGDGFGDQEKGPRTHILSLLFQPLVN
Experiment: GC-MS of alpha-farnesene; FPP formed in situ from IPP by IDI and ISPA
Assay type: biochemical
Settings: 100 mM Hepes pH 7.5, 2 mM IPP, room temperature

CC(C)=CCC/C(C)=C/CC/C(C)=C/COP(=O)(O)OP(=O)(O)O [farnesyl pyrophosphate]
GC-MS of alpha-farnesene; FPP formed in situ from IPP by IDI and ISPA: the yield of AFS was greater than that of MdF, with an α-farnesene yield
